# Tests used:
# [1] = biological target: hemolysin alpha from Staphylococcus aureus (Staphylococcus aureus, UniProt P09616); experiment: cell-based
# [2] = biological target: S. aureus Alpha hemolysin (Staphylococcus aureus, UniProt P09616); experiment: cell-based
# Chain of S. aureus Alpha hemolysin (P09616 27-319 limits assumed): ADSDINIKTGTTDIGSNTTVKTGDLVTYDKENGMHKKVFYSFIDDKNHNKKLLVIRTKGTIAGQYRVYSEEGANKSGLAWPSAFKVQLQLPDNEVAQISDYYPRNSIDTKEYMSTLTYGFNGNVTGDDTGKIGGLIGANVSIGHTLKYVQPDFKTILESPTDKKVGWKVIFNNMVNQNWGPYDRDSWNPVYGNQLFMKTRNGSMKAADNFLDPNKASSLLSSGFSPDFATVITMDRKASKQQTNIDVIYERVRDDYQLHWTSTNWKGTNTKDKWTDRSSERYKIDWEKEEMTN
# Chain of hemolysin alpha from Staphylococcus aureus (P09616 27-319 limits assumed): as above
SMILES,EC50 [1] [µM],EC50 ([2]; A549-LDH Assay activity) [µM],IC50 [1] [µM],EC50 ([2]; LDH Assay EC50) [µM]
"C#Cc1cc(NS(=O)(=O)c2cc3[nH]c(=O)c(=O)[nH]c3cc2C)ccc1-c1ccc2oc(C)nc2c1 [Compound 373, N-[3-ethynyl-4-(2-methyl-1,3-benzoxazol-5-yl)phenyl]-7-methyl-2,3-dioxo-1,4-dihydroquinoxaline-6-sulfonamide]",< 0.03,< 0.03,,
"Cc1ccc(-c2ccc(NS(=O)(=O)c3cc4[nH]c(=O)c(=O)[nH]c4cc3C)cc2Cl)cc1 [Compound 38, N-(2-chloro-4′-methyl-[1,1′-biphenyl]-4-yl)-7-methyl-2,3-dioxo-1,2,3,4-tetrahydroquinoxaline-6-sulfonamide]",,0.1 to 1,0.03 to 0.1,
"Cc1cc2[nH]c(=O)c(=O)[nH]c2cc1S(=O)(=O)Nc1ccc(-c2ccc3c(c2)CCCN3)c(Cl)c1 [Compound 343, N-[3-chloro-4-(1,2,3,4-tetrahydroquinolin-6-yl)phenyl]-7-methyl-2,3-dioxo-1,4-dihydroquinoxaline-6-sulfonamide]",< 0.03,0.1 to 1,,
"Cc1cc2[nH]c(=O)c(=O)[nH]c2cc1S(=O)(=O)Nc1ccc(-c2cc(F)cc(C(N)=O)c2)c(C(F)(F)F)c1 [Compound 363, 3-fluoro-5-[4-[(7-methyl-2,3-dioxo-1,4-dihydroquinoxalin-6-yl)sulfonylamino]-2-(trifluoromethyl)phenyl]benzamide]",0.03 to 0.1,0.03 to 0.1,,
"Cc1cc2[nH]c(=O)c(=O)[nH]c2cc1S(=O)(=O)Nc1ccc(C2CCOCC2)cc1 [Compound 304, 7-methyl-2,3-dioxo-N-(4-tetrahydropyran-4-ylphenyl)-1,4-dihydroquinoxaline-6-sulfonamide]",1 to 3.5,0.1 to 1,,
"Cc1cc(NS(=O)(=O)c2cc3[nH]c(=O)c(=O)[nH]c3cc2F)ccc1-c1ccoc1 [Compound 168, 7-fluoro-N-(4-(furan-3-yl)-3-methylphenyl)-2,3-dioxo-1,2,3,4-tetrahydroquinoxaline-6-sulfonamide]",,1 to 6,0.1 to 1,
"Cc1cc2[nH]c(=O)c(=O)[nH]c2cc1S(=O)(=O)Nc1ccc(SC(F)(F)F)cc1 [Compound 396, 7-methyl-2,3-dioxo-N-[4-(trifluoromethylsulfanyl)phenyl]-1,4-dihydroquinoxaline-6-sulfonamide]",0.1 to 1,0.03 to 0.1,,
"Cc1cc2[nH]c(=O)c(=O)[nH]c2cc1S(=O)(=O)Nc1ccc(-c2ccc3c(c2)OC(F)(F)O3)c(Cl)c1 [Compound 287, N-[3-chloro-4-(2,2-difluoro-1,3-benzodioxol-5-yl)phenyl]-7-methyl-2,3-dioxo-1,4-dihydroquinoxaline-6-sulfonamide]",0.03 to 0.1,0.03 to 0.1,,
"Cc1cc2[nH]c(=O)c(=O)[nH]c2cc1S(=O)(=O)Nc1ccc(-c2cccc(C(N)=O)c2)c(Cl)c1 [Compound 245, 3-[2-chloro-4-[(7-methyl-2,3-dioxo-1,4-dihydroquinoxalin-6-yl)sulfonylamino]phenyl] benzamide]",< 0.03,0.03 to 0.1,,
"Cc1cc2[nH]c(=O)c(=O)[nH]c2cc1S(=O)(=O)Nc1cnc(-c2cncc(Cl)c2)c(Cl)c1 [Compound 279, N-[5-chloro-6-(5-chloro-3-pyridyl)-3-pyridyl]-7-methyl-2,3-dioxo-1,4-dihydroquinoxaline-6-sulfonamide]",0.1 to 1,0.1 to 1,,
"Cc1cc2[nH]c(=O)c(=O)[nH]c2cc1S(=O)(=O)Nc1ccc(-c2cccc(N3CCCC3)c2)c(Cl)c1 [Compound 6, N-(2-chloro-3′-(pyrrolidin-1-yl)-[1,1′-biphenyl]-4-yl)-7-methyl-2,3-dioxo-1,2,3,4-tetrahydroquinoxaline-6-sulfonamide]",,0.1 to 1,< 0.03,
"Cc1cc2[nH]c(=O)c(=O)[nH]c2cc1S(=O)(=O)Nc1ccc(C2CCCCC2)c(Br)c1 [Compound 306, N-(3-bromo-4-cyclohexylphenyl)-7-methyl-2,3-dioxo-1,2,3,4-tetrahydroquinoxaline-6-sulfonamide]",0.03 to 0.1,0.1 to 1,,
"Cc1cc2[nH]c(=O)c(=O)[nH]c2cc1S(=O)(=O)Nc1ccc(N2CCOCC2)c(Br)c1 [Compound 128, N-(3-bromo-4-morpholinophenyl)-7-methyl-2,3-dioxo-1,2,3,4-tetrahydroquinoxaline-6-sulfonamide]",,0.1 to 1,0.1 to 1,
"Cc1cccc(-c2ccc(NS(=O)(=O)c3cc4[nH]c(=O)c(=O)[nH]c4cc3C)cc2)c1 [Compound 112, 7-methyl-N-(3′-methyl-[1,1′-biphenyl]-4-yl)-2,3-dioxo-1,2,3,4-tetrahydroquinoxaline-6-sulfonamide]",,0.1 to 1,0.1 to 1,
"O=c1[nH]c2cc(Cl)c(S(=O)(=O)Nc3ccc(-c4ccsc4)c(Cl)c3)cc2[nH]c1=O [Compound 32, 7-chloro-N-(3-chloro-4-(thiophen-3-yl)phenyl)-2,3-dioxo-1,2,3,4-tetrahydroquinoxaline-6-sulfonamide]",,0.1 to 1,< 0.03,
"Cc1cc(C2CC2)ccc1NS(=O)(=O)c1cc2[nH]c(=O)c(=O)[nH]c2cc1C [Compound 110, N-(4-cyclopropyl-2-methylphenyl)-7-methyl-2,3-dioxo-1,2,3,4-tetrahydroquinoxaline-6-sulfonamide]",,0.03 to 0.1,0.1 to 1,

SMILES,EC50 [1] [µM],EC50 ([2]; A549-LDH Assay activity) [µM],IC50 [1] [µM],EC50 ([2]; LDH Assay EC50) [µM]
"Cc1cc2[nH]c(=O)c(=O)[nH]c2cc1S(=O)(=O)Nc1ccc(I)c(C(F)(F)F)c1 [Compound 325, N-[4-iodo-3-(trifluoromethyl)phenyl]-7-methyl-2,3-dioxo-1,4-dihydroquinoxaline-6-sulfonamide]",0.1 to 1,1 to 6,,
"Cc1cc2[nH]c(=O)c(=O)[nH]c2cc1S(=O)(=O)Nc1ccc(-c2ccc(F)c(Cl)c2F)c(Cl)c1 [Compound 2, N-(2,3′-dichloro-2′,4′-difluoro-[1,1′-biphenyl]-4-yl)-7-methyl-2,3-dioxo-1,2,3,4-tetrahydroquinoxaline-6-sulfonamide]",,0.1 to 1,< 0.03,
"CC(C)c1cc2[nH]c(=O)c(=O)[nH]c2cc1S(=O)(=O)Nc1ccc(-c2cccc(N(C)C)c2)c(Cl)c1 [Compound 109, N-(2-chloro-3′-(dimethylamino)-[1,1′-biphenyl]-4-yl)-7-isopropyl-2,3-dioxo-1,2,3,4-tetrahydroquinoxaline-6-sulfonamide]",,0.1 to 1,0.1 to 1,
"COc1ccc(-c2ccc(NS(=O)(=O)c3cc4[nH]c(=O)c(=O)[nH]c4cc3C)cc2Cl)c(F)c1 [Compound 261, N-[3-chloro-4-(2-fluoro-4-methoxy-phenyl)phenyl]-7-methyl-2,3-dioxo-1,4-dihydroquinoxaline-6-sulfonamide]",< 0.03,0.03 to 0.1,,
"COc1cc(NS(=O)(=O)c2cc3[nH]c(=O)c(=O)[nH]c3cc2C)ccc1Br [Compound 121, N-(4-bromo-3-methoxyphenyl)-7-methyl-2,3-dioxo-1,2,3,4-tetrahydroquinoxaline-6-sulfonamide]",,1 to 6,0.1 to 1,
"Cc1cc2[nH]c(=O)c(=O)[nH]c2cc1S(=O)(=O)Nc1ccc(-c2c(F)cccc2F)c(Cl)c1 [Compound 308, N-[3-chloro-4-(2,6-difluorophenyl)phenyl]-7-methyl-2,3-dioxo-1,4-dihydroquinoxaline-6-sulfonamide]",0.03 to 0.1,0.03 to 0.1,,
"Cc1cc2[nH]c(=O)c(=O)[nH]c2cc1S(=O)(=O)Nc1ccc(-c2ccc(F)cc2)c(N(C)C)c1 [Compound 255, N-[3-(dimethylamino)-4-(4-fluorophenyl)phenyl]-7-methyl-2,3-dioxo-1,4-dihydroquinoxaline-6-sulfonamide]",0.1 to 1,0.1 to 1,,
"Cc1cc2[nH]c(=O)c(=O)[nH]c2cc1S(=O)(=O)Nc1ccc(-c2ccoc2)c(Cl)c1 [Compound 22, N-(3-chloro-4-(furan-3-yl)phenyl)-7-methyl-2,3-dioxo-1,2,3,4-tetrahydroquinoxaline-6-sulfonamide]",,0.1 to 1,< 0.03,
"Cc1cc2[nH]c(=O)c(=O)[nH]c2cc1S(=O)(=O)Nc1ccc(-c2cc(F)cc(C(N)=O)c2)c(Cl)c1 [Compound 390, 3-[2-chloro-4-[(7-methyl-2,3-dioxo-1,4-dihydroquinoxalin-6-yl)sulfonylamino]phenyl]-5-fluoro-benzamide]",< 0.03,< 0.03,,
"Cc1cc2[nH]c(=O)c(=O)[nH]c2cc1S(=O)(=O)Nc1cc(C)c(-c2ccccc2F)c(C)c1 [Compound 51, N-(2′-fluoro-2,6-dimethyl-[1,1′-biphenyl]-4-yl)-7-methyl-2,3-dioxo-1,2,3,4-tetrahydroquinoxaline-6-sulfonamide]",,0.03 to 0.1,0.03 to 0.1,
"O=c1[nH]c2cc(Cl)c(S(=O)(=O)Nc3ccc(Br)c(Cl)c3)cc2[nH]c1=O [Compound 144, N-(4-bromo-3-chlorophenyl)-7-chloro-2,3-dioxo-1,2,3,4-tetrahydroquinoxaline-6-sulfonamide]",,1 to 6,0.1 to 1,
"CC(C)c1cc2[nH]c(=O)c(=O)[nH]c2cc1S(=O)(=O)Nc1ccc(C(F)(F)F)cc1 [Compound 152, 7-isopropyl-2,3-dioxo-N-(4-(trifluoromethyl)phenyl)-1,2,3,4-tetrahydroquinoxaline-6-sulfonamide]",,0.03 to 0.1,0.1 to 1,
"Cc1cc2[nH]c(=O)c(=O)[nH]c2cc1S(=O)(=O)Nc1ccc(C(F)(F)F)c(Cl)c1 [Compound 56, N-(3-chloro-4-(trifluoromethyl)phenyl)-7-methyl-2,3-dioxo-1,2,3,4-tetrahydroquinoxaline-6-sulfonamide]",,1 to 6,0.03 to 0.1,
"O=c1[nH]c2cc(Cl)c(S(=O)(=O)Nc3ccc4ccccc4c3)cc2[nH]c1=O [Compound 172, 7-chloro-N-(naphthalen-2-yl)-2,3-dioxo-1,2,3,4-tetrahydroquinoxaline-6-sulfonamide]",,0.1 to 1,0.1 to 1,
"O=c1[nH]c2cc(Cl)c(S(=O)(=O)Nc3ccc(-c4ccccc4)cc3)cc2[nH]c1=O [Compound 98, N-([1,1′-biphenyl]-4-yl)-7-chloro-2,3-dioxo-1,2,3,4-tetrahydroquinoxaline-6-sulfonamide]",,0.1 to 1,0.1 to 1,
"O=c1[nH]c2ccc(S(=O)(=O)Nc3ccc(C4CC4)cc3)cc2[nH]c1=O [drawing 470 (R^2 = H), reference compound]",0.423,,,0.08
